Values quoted from earlier work as cited in EP0527762B1, “INHIBITION OF ALLOGRAFT AND […] REJECTION” (priority 1990, dated 1991).

System: rabbit kidney xenografts
Settings: rabbit kidney into cats, discordant

Row | Compound | prevention of hyperacute rejection
1 | C[C@H](CS)C(=O)N1CCC[C@H]1C(=O)O [captopril] | not prevented
2 | CCOC(=O)[C@H](CCc1ccccc1)N[C@@H](C)C(=O)N1CCC[C@H]1C(=O)O [enalapril] | not prevented
3 | CCCCC[C@H](O)/C=C/[C@@H]1[C@H]2C/C(=C/CCCC(=O)O)O[C@H]2C[C@H]1O [prostacyclin] | not prevented
4 | O=C(O)c1cc(=O)c2c(OCC(O)COc3cccc4oc(C(=O)O)cc(=O)c34)cccc2o1 [sodium chromoglycate] | not prevented
